Reference: patent publication US20100016435A1, “HYBRID MOLECULES HAVING MIXED VITAMIN D RECEPTOR AGONISM AND HISTONE DEACETYLASE INHIBITORY PROPERTIES” (McGill University, priority 2006, published 2010)

How the values were obtained:
HDAC6 = HDAC6 (Homo sapiens, UniProt Q9UBN7); conditions: cited from earlier work
SCC25 cells = experiment: Antiproliferative activity in SCC25 cells; assay type: cell-based; conditions: 1 at 1 nM or 100 nM; 3 15 nM; combination 3 with 100 nM 1; FIG. 7B
Text: FIG. 7 is an illustration of the antiproliferative activities of 1 and 3, individually or in combination, in SCC4 cells (A) or in SCC25 cells (B) at the concentrations indicated.

α-tubulin = experiment: α-Tubulin acetylation in SCC4 cells, Western blot; assay type: cell-based, human; conditions: 3 15 nM; 36 or 39 10^−6 or 10^−7M; 6 h or 24 h, FIG. 6C
Text: (§1) FIG. 4 is an illustration of the HDAC inhibitory activity of 3 in the SCC4 cell line. FIG. 4A is an illustration of a western blot of nuclear and cytoplasmic extracts of SCC4 cells treated with vehicle (−), 1, or 3 alone or in combination, as indicated. The 55 kDa band corresponds to the molecular weight of tubulin. FIG. 4B illustrates a western blot probed with an antibody directed against acetylated histone H4 (AcH4) showing the effects of the treatments described in A on acetylation of histone H4. FIG. 4C illustrates western blots of the effects of treatments described in A on levels of total alpha-tubulin (left) and acetylated alpha-tubulin (right).
FIG. 6 is a comparison of the HDAC inhibitory activities of 1, 3, 6, 36 or 39 as assessed by their effects on acetylation of alpha-tubulin. In A, SCC4 cells were incubated with vehicle or compound 1 (10^−6M), 3 (15 nM), 6 (10^−6M) and 36 (10^−6M), as indicated for 6 h and protein extracts were probed for total α-tubulin (Tub.) or acetylated α-tubulin (AcTub.) by Western blotting. Blots for acetylated alpha-tubulin and total alpha-tubulin are shown. In B, SCC4 cells were incubated with vehicle or compound 3 (15 nM), 6 (10^−6M) or 36 (10^−6M) as indicated for 6 h or 24 h and protein extracts were probed for acetylated α-tubulin (AcTub.) by Western blotting. In C, SCC4 cells were incubated with vehicle or compounds 3 (15 nM), 36 (10^−6 or 10^−7M) or 39 (10^−6 or 10^−7M) as indicated for 6 h or 24 h and protein extracts were probed for total α-tubulin (tub.) or acetylated α-tubulin (AcTub.) by Western blotting.
(§2) In preliminary experiments, TSA-inducible protein acetylation was analyzed in nuclear and cytoplasmic extracts of SCC4 cells treated for 6 h with 1, 3, or 1 and 3 and subsequently probed by Western blotting for protein acetylation using an anti-acetyllysine antibody. […] Effects of 3 on histone acetylation specifically, were confirmed by probing for acetylation of histone H4 (FIG. 4B). […] However, it was not clear whether this corresponded to enhanced expression or acetylation. […] This was confirmed by probing cytoplasmic fractions with an antibody that recognized α-tubulin (FIG. 4C). Calcitriol (1) had no effect on the acetylation of α-tubulin, and none of the treatments had any substantial effect on total α-tubulin expression (FIG. 4C).
SCC4 cells were incubated with vehicle or compound as indicated for 6 h and cytoplasmic protein extracts were probed by Western blotting using a specific antibody for acetylated α-tubulin.

human VDR = biological target: T1, human VDR (Homo sapiens, UniProt P11473); experiment: Reporter gene assay (VDRE-luciferase) in transiently transfected COS7 cells; assay type: cell-based
T1 construct: expressed in transfected cells; host or cells: COS7
T1 sequence (P11473 1-427): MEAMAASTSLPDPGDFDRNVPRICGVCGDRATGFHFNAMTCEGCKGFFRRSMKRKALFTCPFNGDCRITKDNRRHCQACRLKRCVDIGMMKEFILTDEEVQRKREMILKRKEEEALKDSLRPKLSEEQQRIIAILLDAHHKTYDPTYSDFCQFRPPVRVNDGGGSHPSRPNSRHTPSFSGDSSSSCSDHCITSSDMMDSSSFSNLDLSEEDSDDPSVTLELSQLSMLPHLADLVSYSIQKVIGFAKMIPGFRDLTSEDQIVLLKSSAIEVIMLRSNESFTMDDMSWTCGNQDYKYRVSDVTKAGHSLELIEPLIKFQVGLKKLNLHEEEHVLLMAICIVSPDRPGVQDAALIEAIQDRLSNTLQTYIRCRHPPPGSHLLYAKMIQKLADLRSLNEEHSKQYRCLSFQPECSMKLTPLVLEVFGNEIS
Experimental: FIG. 2 is an illustration of the vitamin D receptor agonist activity of 6 using a reporter gene assay in transiently transfected COS7 cells.
Hybrid molecule 6 was tested for calcitriol agonist activity using a reporter gene assay under standard conditions.^25,26 COS7 cells were transiently co-transfected with a plasmid expression vector for the human VDR, a plasmid vector expressing bacterial β-galactosidase from a constitutively active promoter (as an internal control for transfection efficiency), and a vector containing a luciferase reporter gene, under control of a previously described synthetic promoter composed of three high affinity VDREs (Vitamin D Response Elements) placed immediately upstream of a truncated promoter region from the herpes simplex virus thymidine kinase gene.^25 Cells were left overnight in the presence of DNA and transfection reagent (lipofectamine). The media were changed and cells were incubated in fresh media containing either vehicle (DMSO), 1 (100 nM), 3 (15 nM), 1 and 3 combined (100 nM/15 nM) or 6 (100 nM), and incubated a further 36 h.

SCC4 cells [1] = experiment: Antiproliferative activity in SCC4 cells; conditions: 3 alone, data not shown
SCC4 cells [2] = experiment: Protein acetylation in nuclear and cytoplasmic extracts, Western blot with anti-acetyllysine antibody; assay type: cell-based, human; conditions: 6 h
Text: as §1, §2

histone H4 = experiment: Histone H4 acetylation, Western blot; assay type: cell-based, human; conditions: SCC4 cells, 6 h
Text: as §1, §2

SCC4 cells [3] = experiment: Acidic β-galactosidase activity (marker of autophagy), X-Gal staining and 620 nm measurement; assay type: cell-based, human; conditions: qualitative, FIG. 10A
Text: FIG. 10 is an illustration of the effects of 1, 3, 1+3 and 6 on the induction of acidic β-galactosidase activity, a marker of autophagy (A); FIG. 10 is an illustration of the effects 1, 3, 1+3 and 6 on the levels of β-galactosidase expression as obtained by measuring the indigo cleavage product of X-Gal at 620 nm (B).
Since it was observed that treatment with 1 could enhance cell death by autophagy (ref. 26), the effects of different treatments on the induction of acidic β-galactosidase activity, a marker of autophagy (FIG. 10A) was tested.

SCC4 cells [4] = experiment: Immunocytochemical and morphological analysis (mitotic catastrophe); assay type: cell-based, human
Text: FIG. 12 is an illustration of the immunocytochemical analysis of the effects of 1, 3, or 1 and 3 combined on SCC4 cells (A). […] Both phenotypes are characteristics of mitotic catastrophe. The lower panels (B) show cytoplasmic bridges between SCC4 cells treated with 1 and 3, consistent with the formation of the tubulin bridges seen above in A.
Assembly into microtubules is regulated by acetylation. […] Previous studies have shown that microtubule stabilizing agents can induce mitotic catastrophe (ref. 30). […] The formation of intercellular microtubular structures was consistent with observations in the light microscope of numerous intercellular bridges in cells treated with both 1 and 3 (FIG. 12B, arrows), but not in other treatment groups (not shown).

Sequence of HDAC6 (Q9UBN7 whole entry, species assumed): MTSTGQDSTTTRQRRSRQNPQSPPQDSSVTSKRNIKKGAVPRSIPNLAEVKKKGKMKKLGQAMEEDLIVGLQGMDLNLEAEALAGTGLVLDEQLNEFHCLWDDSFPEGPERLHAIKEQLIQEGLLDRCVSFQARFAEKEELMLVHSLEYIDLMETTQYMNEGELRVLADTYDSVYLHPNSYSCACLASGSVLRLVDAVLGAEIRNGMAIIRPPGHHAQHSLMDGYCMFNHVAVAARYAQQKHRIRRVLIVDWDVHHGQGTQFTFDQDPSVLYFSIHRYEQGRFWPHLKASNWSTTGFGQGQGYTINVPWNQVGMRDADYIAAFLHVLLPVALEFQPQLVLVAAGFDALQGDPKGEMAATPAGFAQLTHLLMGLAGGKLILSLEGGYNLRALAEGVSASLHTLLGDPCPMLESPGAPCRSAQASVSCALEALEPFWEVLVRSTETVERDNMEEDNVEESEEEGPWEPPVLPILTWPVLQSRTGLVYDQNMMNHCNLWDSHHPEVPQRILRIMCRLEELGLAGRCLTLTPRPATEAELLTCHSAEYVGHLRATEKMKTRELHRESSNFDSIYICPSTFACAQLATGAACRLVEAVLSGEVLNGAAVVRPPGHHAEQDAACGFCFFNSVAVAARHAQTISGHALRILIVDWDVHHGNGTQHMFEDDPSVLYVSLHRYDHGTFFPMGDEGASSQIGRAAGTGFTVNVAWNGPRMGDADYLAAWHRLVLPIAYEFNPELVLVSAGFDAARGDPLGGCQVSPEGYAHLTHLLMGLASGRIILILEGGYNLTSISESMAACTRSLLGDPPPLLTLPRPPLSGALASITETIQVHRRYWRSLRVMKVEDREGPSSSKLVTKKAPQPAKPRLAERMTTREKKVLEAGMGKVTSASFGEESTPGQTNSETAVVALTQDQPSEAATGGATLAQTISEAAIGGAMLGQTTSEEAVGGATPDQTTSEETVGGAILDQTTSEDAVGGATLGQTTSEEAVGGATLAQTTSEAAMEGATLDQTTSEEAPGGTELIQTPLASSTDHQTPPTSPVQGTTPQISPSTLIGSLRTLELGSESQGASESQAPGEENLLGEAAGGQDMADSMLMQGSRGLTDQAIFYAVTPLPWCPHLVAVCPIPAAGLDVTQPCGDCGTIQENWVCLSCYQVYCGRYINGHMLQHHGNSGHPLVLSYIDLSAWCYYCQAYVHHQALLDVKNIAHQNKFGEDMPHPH

What does the source list for `CC(/C=C/C(=O)NO)=C\[C@@H](C)C(=O)c1ccc(N(C)C)cc1` [compound 3, trichostatin A]?
HDAC6 activity (HDAC6): can be blocked; SCC25 proliferation / sensitivity (SCC25 cells): substantially less sensitive; levels of acetylated alpha-tubulin normalized for total alpha-tubulin (α-tubulin): Elevated levels; reporter gene activity (calcitriol agonist activity) (human VDR; COS7, 36 h, 1 100 nM, 3 15 nM, 6 100 nM, not normalized): no substantial effect; expression from the internal control plasmid (β-galactosidase) (human VDR; COS7 cells): modestly affects expression; SCC4 proliferation (SCC4 cells [1]; 50 nM): completely inhibited; cell death (SCC4 cells [1]; concentrations higher than 50 nM): substantial cell death; acetylation of a 55 kDa protein, likely tubulin (SCC4 cells [2]; cytoplasmic extracts): markedly enhanced; acetylation of low molecular weight nuclear proteins (SCC4 cells [2]; nuclear extracts): markedly enhanced; histone H4 acetylation (histone H4): markedly enhanced; acidic β-galactosidase staining (X-Gal, pH 4.0), cytochemical (SCC4 cells [3]): weak or relatively modest effects; cell morphology (SCC4 cells [4]; FIG. 12): did not differ from control cells; induction of mitotic catastrophe (SCC4 cells [4]; SCC4 cells): not 1 or 3 alone
